Patent US20240148664A1, “LIPID AND COMPOSITION” (SOGO PHARMACEUTICAL CO., LTD., priority 2021, published 2024)

What was measured:
[1] = system: HT1080-EGFP (human/fibrosarcoma) cells; experiment: Evaluation of knockdown effect (GFP assay), Cell experiment 1; type: cell-based; conditions: lipid nanoparticle containing siRNA against EGFP; fluorescence intensity with control cells without lipid nanoparticle set at 100
Method: A cell experiment was carried out by using HT1080-EGFP (human/fibrosarcoma) cells in order to evaluate lipid nanoparticles encapsulating an siRNA produced by using the lipids of the Examples and the Comparative Examples. These cells are cells provided with a green fluorescent protein gene (EGFP). The expression of EGFP can be easily confirmed by measuring the fluorescence intensity of a solution in which the cells are lysed, and thus by acting lipid nanoparticles encapsulating an siRNA that suppresses the expression of EGFP and observing any decrease in fluorescence intensity, the performance of the lipid nanoparticles used can be evaluated. Hereinafter, the procedure of the cell experiment will be shown.
A. Provision of Cells • (i) A liquid medium (DMEM/Ham's F12, FBS+, P/S+) (FBS: fetal bovine serum, P/S: antibiotic) was taken out from a refrigerator and temperature-controlled in an incubator set at 37° C. • (ii) A cryotube containing the cells was taken out from a −80° C. freezer and thawed at once in an incubator set at 37° C. • (iii) A stock solution of the thawed cells was collected in a capped test tube. • (iv) The tube containing the cells was washed with the liquid medium, and the wash was also collected in the test tube. • (v) The tube was subjected to a centrifuge to precipitate the cells. • (vi) The supernatant was aspirated, and the liquid medium was added and gently tapped to disperse the cells. • (vii) A small amount of the cells-dispersed liquid medium was collected, and the number of cells was observed and counted under a microscope. • (viii) The cells were seeded in a 24-well plate such that the number of cells was 2×10^4 cells per well. For the plate for an LDH assay described later, the cells were seeded in a 96-well plate such that the number of cells was 4×10^3 cells per well. • (ix) The 24-well plate or the 96-well plate was placed in an incubator, and the cells were cultured for 24 hours under conditions of 37° C. and 5% CO2.
The produced lipid nanoparticles were introduced into cells. • (i) Fetal bovine serum (FBS) was added to a liquid medium (FBS-, P/S-) temperature-controlled as in (i) of A above, in such a way as to reach 10%. • (ii) A 24-well plate was taken out from an incubator, and the liquid medium supernatant in the 24-well plate was aspirated and washed with phosphate buffered saline (PBS). • (iii) 400 μL of the liquid medium produced in (i) above was added to the washed 24-well plate. In addition, 100 μL of an LNP solution having an adjusted concentration was added. • (iv) The 24-well plate was placed in the incubator, and the cells were cultured (for 24 hours). • (v) After 24 hours, the liquid medium supernatant in the 24-well plate was aspirated, and 500 μL of a liquid medium containing 10% FBS (FBS+/P/S+) was added. • (vi) The 24-well plate was placed in the incubator, and the cells were cultured for 24 hours under conditions of 37° C. and 5% CO2.
By carrying out a GFP assay, the EGFP expression level in cells was measured to evaluate the effect of knocking down the green fluorescent protein gene (EGFP) by lipid nanoparticles. • (i) A 24-well plate was taken out from an incubator and washed with PBS. • (ii) A 1% octylglucoside solution to which a protease inhibitor was added was added in order to disrupt cells. Stirring with a pipette lysed the cells. • (iii) The cell lysate was transferred to an Eppendorf tube and subjected to a centrifuge. • (iv) 150 μL of the supernatant was collected and added to a plate for fluorescence measurement. • (v) The fluorescence intensity was measured under conditions of an excitation wavelength of 485 nm and a fluorescence wavelength of 535 nm with a plate reader (manufactured by TECAN, Infinite M200). The fluorescence intensity was calculated with the fluorescence intensity of control cells to which no lipid nanoparticle was added set at 100.

[2] = siRNA / mRNA encapsulation rate of lipid nanoparticle (RiboGreen); type: physicochemical
Summary of the method: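 LNP solution was read with RiboGreen (ex 480/em 520 nm) with and without 1% Triton X-100 disruption (2 pmol siRNA or mRNA per 40 μL). Encapsulation (%) = (a−b)/a×100, a = total and b = free RNA signal, each a blank-subtracted mean of three readings.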

[3] = Measurement of particle size, polydispersity index and zeta potential of lipid nanoparticle (Zetasizer); type: physicochemical
Summary of the method: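 Dialysed LNP solution diluted in ultrapure water; particle size taken as Z-average and PDI by dynamic light scattering (Zetasizer). Zeta potential measured with pH 7.4 Tris-HCl as diluent.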

[4] = siRNA encapsulation rate of lipid nanoparticle
[5] = lipid nanoparticle containing siRNA, main lipid/DPPC/cholesterol=45/10/45, Z-average in ultrapure water
[6] = lipid nanoparticle containing siRNA, main lipid/DPPC/cholesterol=45/10/45, ultrapure water
[7] = lipid nanoparticle containing siRNA, pH 7.4 Tris-HCl
[8] = mRNA lipid nanoparticle for in vivo experiment, PEG-modified lipid (PEG2000-DMG 1.5 mol %) present
[9] = mRNA lipid nanoparticle for in vivo experiment, PEG-modified lipid absent

| Structure (SMILES) | Encapsulation rate (%) [2, 4] [%] | Particle size (nm) [3, 5] [nm] | PDI [3, 6] | Zeta potential (mV) [3, 7] [mV] | Encapsulation rate (%) [2, 8] [%] | Encapsulation rate (%) [2, 9] [%] | PDI [3, 8] | Particle size (nm) [3, 8] [nm] | Zeta potential (mV) [3, 8] [mV] | PDI [3, 9] | Particle size (nm) [3, 9] [nm] | Zeta potential (mV) [3, 9] [mV] | GFP Assay [1] |
| --- | --- | --- | --- | --- | --- | --- | --- | --- | --- | --- | --- | --- | --- |
| CCCCCCCC/C=C\CCCCCCCCC(CCCCCCC/C=C\CCCCCCCC)OC(=O)C(CCC(=O)O)NC(=O)C(N)CCCNC(=N)N (stereo not shown) [Example 2, 4-(2-amino-5-guanidinopentanamido)-5-(((9Z,27Z)-hexatriaconta-9,27-dien-18-yl)oxy)-5-oxopentanoic acid] | 99 | 119.7 | 0.099 | 9.59 | 93.2 | 91.3 | 0.19 | 92.8 | 16.71 | 0.10 | 119.7 | 3.92 | 24 |
| CCCCCCCC/C=C\CCCCCCCCC(CCCCCCC/C=C\CCCCCCCC)OC(=O)C(NC(=O)C(N)CCCNC(=N)N)C(C)O [Example 5, (9Z,27Z)-hexatriaconta-9,27-dien-18-yl (2S)-2-((S)-2-amino-5-guanidinopentanamido)-3-hydroxybutanoate] | 100 | 109.2 | 0.084 | 15.2 |  |  |  |  |  |  |  |  | 22 |
| CCCCCCCC/C=C\CCCCCCCCC(CCCCCCC/C=C\CCCCCCCC)OC(=O)[C@H](CCSC)NC(=O)[C@@H](N)CCCNC(=N)N (stereo partly shown) [Example 6, (9Z,27Z)-hexatriaconta-9,27-dien-18-yl arginylmethioninate] | 100 | 125.9 | 0.118 | 21.9 |  |  |  |  |  |  |  |  | 40 |

Further lines, with some results ahead:

| Encapsulation rate (%) [2, 4] [%] | Particle size (nm) [3, 5] [nm] | PDI [3, 6] | Zeta potential (mV) [3, 7] [mV] | Encapsulation rate (%) [2, 8] [%] | Encapsulation rate (%) [2, 9] [%] | PDI [3, 8] | Particle size (nm) [3, 8] [nm] | Zeta potential (mV) [3, 8] [mV] | PDI [3, 9] | Particle size (nm) [3, 9] [nm] | Zeta potential (mV) [3, 9] [mV] | Structure (SMILES) | GFP Assay [1] |
| --- | --- | --- | --- | --- | --- | --- | --- | --- | --- | --- | --- | --- | --- |
| 95 | 117.1 | 0.085 | −7.75 |  |  |  |  |  |  |  |  | CCCCCCCC/C=C\CCCCCCCCC(CCCCCCC/C=C\CCCCCCCC)OC(=O)C(CC(=O)O)NC(=N)N (stereo not shown) [Comparative Example 2, 3-guanidino-4-(((9Z,27Z)-hexatriaconta-9,27-dien-18-yl)oxy)-4-oxobutanoic acid, reference compound] | 97 |
| 100 | 103.6 | 0.101 | 15.7 |  |  |  |  |  |  |  |  | CCCCCCCC/C=C\CCCCCCCCC(CCCCCCC/C=C\CCCCCCCC)OC(=O)C(CO)NC(=O)C(N)CCCNC(=N)N [Example 4, (9Z,27Z)-hexatriaconta-9,27-dien-18-yl (2S)-2-((S)-2-amino-5-guanidinopentanamido)-3-hydroxypropionate] | 7 |
| 95 | 137.0 | 0.329 | −7.66 |  |  |  |  |  |  |  |  | CCCCCCCC/C=C\CCCCCCCCC(CCCCCCC/C=C\CCCCCCCC)OC(=O)C(CCC(=O)O)NC(=N)N (stereo not shown) [Comparative Example 3, 4-guanidino-5-(((9Z,27Z)-hexatriaconta-9,27-dien-18-yl)oxy)-5-oxopentanoic acid, reference compound] | 102 |
| 99 | 116.5 | 0.169 | 6.98 |  |  |  |  |  |  |  |  | CCCCCCCC/C=C\CCCCCCCCC(CCCCCCC/C=C\CCCCCCCC)OC(=O)C(CC(=O)O)NC(=O)C(N)CCCNC(=N)N (stereo not shown) [Example 1, 3-(2-amino-5-guanidinopentanamido)-4-(((9Z,27Z)-hexatriaconta-9,27-dien-18-yl)oxy)-4-oxobutanoic acid] | 28 |
